Results published in the supplement of paper PMC10307832.

What was measured:
Test in all cases: relative viability (nuclei count vs DMSO), 5 days (fraction); higher = more cells survive
[1] = compound: C1/C(=C\C2=CC=CS2)/C(=O)/C(=C/C3=CC=CS3)/C1
Outline: (§1)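 Acceptance criteria were a control CV below 25% and at least one doubling per plate. Lung cancer cell lines in 1536-well plates got five library-drug doses (not always all listed) √10 apart by pinning and were left 5 days with no medium change. Viability divides treated-well nuclei by vehicle-well nuclei and is the median across plates. Nuclei were counted by MetaXpress from 4× Hoechst images.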

TPCA-1 = compound: C1=CC(=CC=C1C2=CC(=C(S2)NC(=O)N)C(=O)N)F [TPCA-1]
Outline: as §1

Lestaurtinib = compound: C[C@]12O[C@H](C[C@]1(O)CO)n1c3ccccc3c3c4c(c5c6ccccc6n2c5c31)CNC4=O [Lestaurtinib]
Outline: as §1

TPCA-1 + Dasatinib = compound: C1=CC(=CC=C1C2=CC(=C(S2)NC(=O)N)C(=O)N)F [TPCA-1] + Cc1nc(Nc2ncc(C(=O)Nc3c(C)cccc3Cl)s2)cc(N2CCN(CCO)CC2)n1 [Dasatinib] (partner 0.075 µM)
Outline: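 For relative viability, nuclei counts in treated wells were divided by those in vehicle wells. Lung cancer cell lines had been pin-tool dosed in 1536-well plates the day after seeding and cultured for 5 days, then fixed and stained in one step (final 0.05% Triton X-100, 1% formaldehyde, 1 ug/ml Hoechst) and imaged at 4×. Doses were one drug alone or a fixed anchor-drug dose plus five library-drug doses (not always all listed) in √10 steps, and values are duplicate-plate medians.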

Cell Line	relative viability ([1]; 0.2 µM)	relative viability ([1]; 0.6325 µM)	relative viability ([1]; 2 µM)	relative viability ([1]; 6.325 µM)	relative viability ([1]; 20 µM)	relative viability (TPCA-1; 0.04 µM)	relative viability (TPCA-1; 0.1265 µM)	relative viability (TPCA-1; 0.4 µM)	relative viability (TPCA-1; 1.265 µM)	relative viability (TPCA-1; 4 µM)	relative viability (Lestaurtinib; 0.005 µM)	relative viability (Lestaurtinib; 0.01581 µM)	relative viability (Lestaurtinib; 0.05 µM)	relative viability (Lestaurtinib; 0.1581 µM)	relative viability (Lestaurtinib; 0.5 µM)	relative viability (TPCA-1 + Dasatinib; first compound 0.04 µM)	relative viability (TPCA-1 + Dasatinib; first compound 0.1265 µM)	relative viability (TPCA-1 + Dasatinib; first compound 0.4 µM)	relative viability (TPCA-1 + Dasatinib; first compound 1.265 µM)	relative viability (TPCA-1 + Dasatinib; first compound 4 µM)
Calu-6	1.06	1.05	0.993	0.944	0.985	1.06	0.95	0.982	1	0.72	1.05	0.999	0.621	0.518	0.204	–	–	–	–	–
ChaGo-K-1	0.997	1.02	1.02	0.787	0.535	1.09	0.927	0.965	0.925	0.637	1	1.08	0.906	1.01	0.437	0.754	0.594	0.705	0.561	0.218
EBC-1	1.08	1.07	1.01	0.888	0.972	1.15	0.975	0.991	0.973	0.988	1.04	1.15	0.818	0.756	0.428	–	–	–	–	–
EKVX	0.984	0.928	1.15	0.772	0.961	1.05	0.829	1.04	0.815	0.737	1	1.09	1.05	1.01	0.663	0.535	0.542	0.529	0.487	0.627
EMC-BAC-2	0.904	1.06	0.978	0.916	1.07	1.01	0.979	1.05	0.819	0.392	0.925	1.04	0.73	0.417	0.357	0.364	0.352	0.368	0.46	0.343
EPLC-272H	1.13	0.925	1.01	0.833	0.786	1.06	0.881	1.12	0.805	0.676	0.801	0.748	0.607	0.444	0.304	0.449	0.33	0.365	0.421	0.301
H3255	1.03	1.04	0.977	0.899	0.972	1.08	0.898	0.916	0.816	0.783	1.03	1.08	0.935	0.744	0.511	0.421	0.352	0.431	0.305	0.301
HARA	1.11	0.94	1.03	0.853	0.945	1.05	0.996	1.06	1.14	0.476	1.09	1.22	1.08	0.619	0.499	0.298	0.289	0.298	0.257	0.231
HCC-15	1.04	1.04	1.03	0.87	0.977	1.14	0.926	1.04	0.887	0.55	1.08	1.18	0.873	0.824	0.183	0.735	0.495	0.592	0.523	0.392
